Measurements published in patent US10792377B2, “Compounds and method for imaging cancer” (Vanderbilt University, priority 2017, dated 2020).
Like-named read-outs stand apart in the source and are kept apart here.

How the values were obtained:
murine COX-2 = target: T1, murine COX-2 (Mus musculus, UniProt Q05769); experiment: In vitro purified COX-2 inhibition assay (TLC, 14C-arachidonic acid); assay type: biochemical; details: for COX-2 Selectivity Index (COX-1 IC50/COX-2 IC50): in vitro, purified enzymes
T1 sequence (Q05769 18-604): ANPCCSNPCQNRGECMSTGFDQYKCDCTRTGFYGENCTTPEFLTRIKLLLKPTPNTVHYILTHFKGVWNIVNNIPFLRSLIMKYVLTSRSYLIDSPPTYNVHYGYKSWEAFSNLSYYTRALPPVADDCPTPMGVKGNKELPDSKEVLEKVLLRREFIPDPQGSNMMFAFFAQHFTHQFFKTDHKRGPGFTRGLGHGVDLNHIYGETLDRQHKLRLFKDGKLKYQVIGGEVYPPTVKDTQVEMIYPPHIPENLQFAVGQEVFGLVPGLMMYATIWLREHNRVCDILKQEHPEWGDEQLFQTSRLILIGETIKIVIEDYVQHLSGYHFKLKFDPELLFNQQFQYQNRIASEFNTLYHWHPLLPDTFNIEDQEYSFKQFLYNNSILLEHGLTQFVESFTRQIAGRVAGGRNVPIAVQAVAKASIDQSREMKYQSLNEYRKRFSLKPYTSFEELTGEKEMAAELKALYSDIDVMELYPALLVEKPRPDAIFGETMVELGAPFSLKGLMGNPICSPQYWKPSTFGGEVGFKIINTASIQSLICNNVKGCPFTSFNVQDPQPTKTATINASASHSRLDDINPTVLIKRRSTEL
Description: The in vitro cyclooxygenase (ovine COX-1 or human COX-2) inhibitory activities of these probes were tested by a previously described TLC assay (FIGS. 19-21). Briefly, reaction mixtures of 200 μL consisted of hematin-reconstituted protein in 100 mM Tris-HCl, pH 8.0, 500 μM phenol, and [1-^14C]arachidonic acid (50 μM, about 55-57 mCi/mmol, Perkin Elmer).
Inhibition Assay Using Purified COX-1 and COX-2. Inhibition of purified ovine COX-1 or mouse COX-2 by test compounds was assayed by a previously described method, which quantifies the conversion of [1-^14C]arachidonic acid to [1-^14C]prostaglandin products. Reaction mixtures of 200 ∝L consisted of hematin-reconstituted protein in 100 mM Tris-HCl, pH 8.0, 500 μM phenol, and [1-^14C]arachidonic acid (50 μM, ˜55-57 mCi/mmol, Perkin Elmer). For the time-dependent inhibition assay, hematin-reconstituted COX-1 ([…]) was preincubated at 25° C. for 17 min and 37° C. for 3 min with varying inhibitor concentrations in dimethylsulfoxide followed by the addition of [1-^14C]arachidonic acid (50 μM) for 30 s at 37° C. Reactions were terminated by solvent extraction in diethyl ether:methanol:1 M citrate buffer, pH 4.0 (30:4:1). The phases were separated by centrifugation at 2000 g for 2 min, and the organic phase was spotted on a thin-layer chromatography plate (EMD Kieselgel 60, VWR). The plate was developed in ethyl acetate:methylene chloride:glacial AcOH (75:25:1) at 4° C. Radiolabeled products were quantified with a radioactivity scanner (Bioscan, Inc., Washington, D.C.).

hCOX-2 in 1483 cells = target: T2, hCOX-2 in 1483 cells (Homo sapiens, UniProt P35354); experiment: Intact cell COX-2 inhibition assay in 1483 HNSCC cells; assay type: cell-based
T2 construct: cells that express high levels of COX-2 were selected; endogenous in cells; host or cells: 1483 human head and neck squamous cell carcinoma (HNSCC) cells
T2 sequence (P35354 18-604): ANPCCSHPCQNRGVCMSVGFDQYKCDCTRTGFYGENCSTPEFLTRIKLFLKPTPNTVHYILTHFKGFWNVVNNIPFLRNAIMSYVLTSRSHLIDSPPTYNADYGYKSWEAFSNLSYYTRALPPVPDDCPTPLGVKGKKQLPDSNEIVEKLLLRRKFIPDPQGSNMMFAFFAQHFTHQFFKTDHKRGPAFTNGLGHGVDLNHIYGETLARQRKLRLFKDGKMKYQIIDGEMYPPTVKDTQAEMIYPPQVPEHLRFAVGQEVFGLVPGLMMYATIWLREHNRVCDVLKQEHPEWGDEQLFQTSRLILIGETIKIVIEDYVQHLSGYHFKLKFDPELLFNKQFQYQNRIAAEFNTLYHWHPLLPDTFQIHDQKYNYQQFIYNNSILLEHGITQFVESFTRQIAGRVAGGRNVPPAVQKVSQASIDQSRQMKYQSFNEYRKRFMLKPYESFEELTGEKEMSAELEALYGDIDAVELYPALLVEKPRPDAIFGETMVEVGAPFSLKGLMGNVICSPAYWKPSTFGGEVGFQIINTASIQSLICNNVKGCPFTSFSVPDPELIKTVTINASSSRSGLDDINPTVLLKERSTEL
Description: Following the promising results from the purified enzyme assay, the ability of compound 1 to inhibit COX-2 in intact cells was examined using a previously reported method. 1483 human head and neck squamous cell carcinoma (1483 HNSCC) cells that express high levels of COX-2 were selected. […]
Cell Culture and In Vitro Intact Cell Metabolism Assay. Inhibition of COX-2 in intact cells by test compounds was assayed by a previously described method. Human 1483 head and neck squamous cell carcinoma (HNSCC) cells (passage 8-18, mycoplasma negative by a polymerase chain reaction detection method) were cultured in DMEM/F12+10% fetal bovine serum+Antibiotic/Antimycotic in 6-well plates to 60% confluence. […] Reactions were terminated and analyzed by thin layer chromatography as described above.

[1] = system: COX-2 expressing 1483 tumors; experiment: In vivo imaging of nude mice with 1483 xenografts; details: 1 mg/kg intraperitoneal, nude mice 1483 xenografts
Description: The specificity of probe 1 was also evaluated by targeting COX-2 in human tumor xenografts. Nude mice bearing 1483 xenograft tumors on the left flank were dosed by intraperitoneal injection with 1 mg/kg fluorocoxib A or compound 1 (FIG. 25). […] However, signal was detected in the COX-2 expressing 1483 tumors of mice dosed with compound 1 starting at 24 h. Maximum fluorescence is detectable in the tumor at 48 h post-injection of probe 1 (FIGS. 27A-C).
Establishment of xenograft tumors in nude mice. Human 1483 HNSCC cells and HCT116 colorectal carcinoma cells were used to grow tumor xenografts in nude mice using a previously described method. Female nude mice, NU-Foxlnu, were purchased at 6-7 weeks of age from Charles River Labs. Human 1483 HNSCC cells were trypsinized and resuspended in cold PBS containing 30% Matrigel such that 1×10^6 cells in 100 μl were injected subcutaneously on the left flank and grew for 2-3 weeks.
In vivo imaging of nude mice with xenografts. Fluorescence imaging of tumors by test compounds was performed by a previously described method. Female nude mice bearing medium-sized 1483 xenograft tumors on the left flank were dosed by intraperitoneal injection with 1 mg/kg compound 1. The animals were lightly anesthetized with 2% isoflurane for fluorescence imaging in the Xenogen IVIS 200 with the DSRed filter at 1.5 cm depth and 1 sec exposure (f2).

| Structure (SMILES) | IC50 (murine COX-2; COX-2 IC50, in vitro purified cox assay) | COX-2 Selectivity Index (COX-1 IC50/COX-2 IC50) (murine COX-2) | IC50 (murine COX-2; mCOX-2 IC50, purified murine COX-2 (63 nM), inhibitor 20 min, then 1-14C-AA (50 μM) 37° C. 30 s, duplicates) | IC50 (hCOX-2 in 1483 cells; COX-2 IC50 in intact cells, 1483 HNSCC cells, compound 30 min 37° C., then [1-14C]-arachidonic acid 10 μM 20 min) | IC50 (hCOX-2 in 1483 cells; hCOX-2 IC50, 1483 cells, 8 μM 14C-AA, 30 min at 37° C.) | time post-injection at which tumor signal starts to be detected [1] | time post-injection of maximum tumor fluorescence [1] | IC50 (hCOX-2 in 1483 cells; high throughput screening, intact cancer cells, read-out: COX-2 positive 1483 HNSCC cells IC50) | fluorescence in the tumor ([1]; 3 h post-injection) |
| --- | --- | --- | --- | --- | --- | --- | --- | --- | --- |
| COc1ccc2c(c1)c(CC(=O)NCCCCNC(=O)c1ccc(C3=c4cc5c6c(c4Oc4c3cc3c7c4CCCN7CCC3)CCC[N+]=6CCC5)c(C(=O)NC3CC(C)(C)N([O])C(C)(C)C3)c1)c(C)n2C(=O)c1ccc(Cl)cc1 [Compound 1] | 303 nM | >83 | 300 nM | 280 nM | 285 nM | 24 h | 48 h | – | – |
| COc1ccc2c(c1)c(CC(=O)NCCCCNC(=O)c1ccc(C3=c4cc5c6c(c4Oc4c3cc3c7c4CCCN7CCC3)CCC[N+]=6CCC5)c(C(=O)[O-])c1)c(C)n2C(=O)c1ccc(Cl)cc1 [Fluorocoxib A, reference compound] | – | >35 | – | – | – | – | – | 300 nM | fluorescence was observed in the tumor |
